# Test results reported in patent US20100160411A1, “BENZOXATHIINE AND BENZOXATHIOLE DERIVATIVES AND USES THEREOF” (Wyeth, priority 2006, published 2010).
# Where two headings read alike, the source gives them in different places.
# Legend:
# [1] = target: T1, human 5-hydroxytryptamine-2C (h5-HT2C) receptor (Homo sapiens, UniProt P28335); assay: [125I]DOI binding to membranes of CHO cells expressing the h5-HT2C receptor
# T1 construct: expressed in transfected cells; host or cells: CHO (Chinese Hamster Ovary) cells; membrane preparation
# T1 sequence (P28335 33-458): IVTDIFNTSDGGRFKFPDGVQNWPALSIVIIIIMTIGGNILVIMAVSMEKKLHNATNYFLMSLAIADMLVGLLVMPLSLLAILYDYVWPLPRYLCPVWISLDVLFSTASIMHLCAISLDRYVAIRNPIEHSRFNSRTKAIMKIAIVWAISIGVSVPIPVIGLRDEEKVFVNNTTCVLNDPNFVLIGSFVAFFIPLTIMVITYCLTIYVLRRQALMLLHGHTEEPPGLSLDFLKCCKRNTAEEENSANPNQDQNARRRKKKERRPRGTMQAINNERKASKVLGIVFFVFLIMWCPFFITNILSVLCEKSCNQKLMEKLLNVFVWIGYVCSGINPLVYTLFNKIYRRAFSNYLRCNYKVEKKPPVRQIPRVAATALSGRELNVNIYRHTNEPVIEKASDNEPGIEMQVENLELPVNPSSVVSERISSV
# human 5-HT2C receptor = target: T2, human 5-HT2C receptor (Homo sapiens, UniProt P28335); assay: calcium mobilization (FLIPR) in CHO cells stably expressing the human 5-HT2C receptor; format: cell-based
# T2 sequence (P28335 33-458): T1 sequence (P28335 33-458)
# [2] = read-out: 5-HT2C Binding Ki avg
compound,measurement,setting,value
"NCC1C[S+]([O-])c2cc(F)cc(-c3c(Cl)cccc3Cl)c2O1 (stereo not shown) [Example 2, C-[8-(2,6-Dichloro-phenyl)-6-fluoro-4-oxo-3,4-dihydro-2H-4lambda*4*-benzo[1,4]oxathiin-2-yl]-methylamine]",Ki,[1]; [2],388 nM
"NCC1CS(=O)(=O)c2cc(F)cc(-c3c(Cl)cccc3Cl)c2O1 (stereo not shown) [Example 3, C-[8-(2,6-Dichloro-phenyl)-6-fluoro-4,4-dioxo-3,4-dihydro-2H-4lambda*6*-benzo[1,4]oxathiin-2-yl]-methylamine]",Ki,[1]; [2],11.7 nM
"CSc1ccc2c(c1)C(N1CCN(C)CC1)Cc1ccccc1S2 (stereo not shown) [Methiothepin, reference compound]",Ki,"[1]; reference compounds, 95% confidence interval in parentheses, [125I]DOI radioligand, CHO cell membranes, read-out: Ki",4.6 nM
"COc1cc(CC(C)N)c(OC)cc1I (stereo not shown) [[125I] DOI, reference compound]",Kd,"[1]; saturation binding with increasing concentrations of [125I] DOI, read-out: dissociation constant, KD",0.4 nM
"NCC1CSc2cc(F)cc(-c3c(Cl)cccc3Cl)c2O1 (stereo not shown) [Example 1, C-[8-(2,6-Dichloro-phenyl)-6-fluoro-2,3-dihydro-benzo[1,4]oxathiin-2-yl]-methylamine]",Emax,"human 5-HT2C receptor; CHO, read-out: 5-HT2C Function EMax (%)",70%
same,EC50,"human 5-HT2C receptor; calcium mobilization, CHO cells, FLIPR, read-out: 5-HT2C Function EC50",356 nM
same,Ki,[1]; [2],0.535 nM
